Source: US11352340B2, “Pyridine and pyridimine compounds as PI3K-gamma inhibitors” (Incyte Corporation, priority 2016, dated 2022)
Counter-ions that a name gives are not always drawn. Like-named read-outs stand apart in the source and are kept apart here.

Key:
[1] = test system: Phosphorylated Ribosomal Protein S6 (RPS6) in THP-1 cells; assay: THP-1 RPS6 ELISA Assay; type: cell-based, Human; conditions: MCP-1 stimulated, phospho-RPS6 ELISA, read-out: THP p-RPS6 ELISA IC50
Outline: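 Phospho-RPS6 in lysates measured by ELISA at 450 nm, corrected at 540 nm, after MCP-1 challenge (10 nM, 15 min) of THP-1 cells that were starved overnight and exposed to test compound for 2 h at 37° C, 2×10^5 cells/well. Curve fit of percent inhibition gives IC50.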

[2] = target: PI3Kδ (p110δ/p85α) Recombinant Human Protein (Homo sapiens (Human), UniProt O00329); assay: PI3Kδ Scintillation Proximity Assay; type: biochemical; conditions: read-out: PI3K-delta SPA IC50
Outline: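 Assay conditions: 2 μM ATP (radiolabelled), 20 μM PIP2, 3.4 nM PI3Kδ, 20 mM MOPS pH 6.7 with 10 mM MgCl2, 5 mM DTT, 0.03% CHAPS, 2 h at room temperature. Signal from bead-captured 33P product; IC50 versus solvent control.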

[3] = target: PI3Kγ (p110γ) Recombinant Human Protein (Homo sapiens (Human), UniProt P48736); assay: PI3K-γ Scintillation Proximity Assay; type: biochemical; conditions: read-out: PI3K-gamma SPA IC50
Outline: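 Radiometric SPA: reaction at room temperature for 120 min using 2 μM ATP with [γ-33P]ATP tracer, 20 μM PIP2 substrate and 13 nM human PI3Kγ (MOPS pH 6.7, MgCl2, DTT, CHAPS; 2% DMSO). EDTA quench with WGA beads, scintillation count, and IC50 fit of percent-of-control activity.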

Sequence of PI3Kγ (p110γ) Recombinant Human Protein (P48736 whole entry): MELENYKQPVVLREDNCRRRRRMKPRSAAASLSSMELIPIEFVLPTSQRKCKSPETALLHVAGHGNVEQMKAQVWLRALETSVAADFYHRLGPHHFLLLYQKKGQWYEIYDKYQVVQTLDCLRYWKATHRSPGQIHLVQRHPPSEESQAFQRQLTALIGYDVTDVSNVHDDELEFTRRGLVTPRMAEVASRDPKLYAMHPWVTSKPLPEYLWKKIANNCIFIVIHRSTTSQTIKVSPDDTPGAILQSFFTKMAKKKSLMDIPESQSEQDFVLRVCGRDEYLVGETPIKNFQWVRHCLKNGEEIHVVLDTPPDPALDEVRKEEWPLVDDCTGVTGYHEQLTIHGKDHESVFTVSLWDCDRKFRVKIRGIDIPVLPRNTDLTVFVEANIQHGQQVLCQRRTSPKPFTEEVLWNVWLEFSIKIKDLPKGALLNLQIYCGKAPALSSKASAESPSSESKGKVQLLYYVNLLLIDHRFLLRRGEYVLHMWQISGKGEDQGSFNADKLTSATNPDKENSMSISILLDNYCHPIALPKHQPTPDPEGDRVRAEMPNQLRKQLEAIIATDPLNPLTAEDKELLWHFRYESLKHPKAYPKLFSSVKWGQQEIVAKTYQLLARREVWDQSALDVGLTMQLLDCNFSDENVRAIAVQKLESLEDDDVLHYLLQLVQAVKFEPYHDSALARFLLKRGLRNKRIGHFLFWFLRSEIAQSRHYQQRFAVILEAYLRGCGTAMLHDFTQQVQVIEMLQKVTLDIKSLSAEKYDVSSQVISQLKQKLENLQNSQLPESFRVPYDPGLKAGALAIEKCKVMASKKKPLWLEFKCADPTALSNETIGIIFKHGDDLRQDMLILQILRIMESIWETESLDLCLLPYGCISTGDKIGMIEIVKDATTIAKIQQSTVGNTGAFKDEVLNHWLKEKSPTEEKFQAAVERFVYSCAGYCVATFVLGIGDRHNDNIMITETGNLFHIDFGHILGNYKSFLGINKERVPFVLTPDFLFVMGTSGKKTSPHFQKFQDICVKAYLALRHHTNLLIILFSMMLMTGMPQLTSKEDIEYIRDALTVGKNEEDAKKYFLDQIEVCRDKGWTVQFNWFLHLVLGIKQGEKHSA
Sequence of PI3Kδ (p110δ/p85α) Recombinant Human Protein (O00329 whole entry): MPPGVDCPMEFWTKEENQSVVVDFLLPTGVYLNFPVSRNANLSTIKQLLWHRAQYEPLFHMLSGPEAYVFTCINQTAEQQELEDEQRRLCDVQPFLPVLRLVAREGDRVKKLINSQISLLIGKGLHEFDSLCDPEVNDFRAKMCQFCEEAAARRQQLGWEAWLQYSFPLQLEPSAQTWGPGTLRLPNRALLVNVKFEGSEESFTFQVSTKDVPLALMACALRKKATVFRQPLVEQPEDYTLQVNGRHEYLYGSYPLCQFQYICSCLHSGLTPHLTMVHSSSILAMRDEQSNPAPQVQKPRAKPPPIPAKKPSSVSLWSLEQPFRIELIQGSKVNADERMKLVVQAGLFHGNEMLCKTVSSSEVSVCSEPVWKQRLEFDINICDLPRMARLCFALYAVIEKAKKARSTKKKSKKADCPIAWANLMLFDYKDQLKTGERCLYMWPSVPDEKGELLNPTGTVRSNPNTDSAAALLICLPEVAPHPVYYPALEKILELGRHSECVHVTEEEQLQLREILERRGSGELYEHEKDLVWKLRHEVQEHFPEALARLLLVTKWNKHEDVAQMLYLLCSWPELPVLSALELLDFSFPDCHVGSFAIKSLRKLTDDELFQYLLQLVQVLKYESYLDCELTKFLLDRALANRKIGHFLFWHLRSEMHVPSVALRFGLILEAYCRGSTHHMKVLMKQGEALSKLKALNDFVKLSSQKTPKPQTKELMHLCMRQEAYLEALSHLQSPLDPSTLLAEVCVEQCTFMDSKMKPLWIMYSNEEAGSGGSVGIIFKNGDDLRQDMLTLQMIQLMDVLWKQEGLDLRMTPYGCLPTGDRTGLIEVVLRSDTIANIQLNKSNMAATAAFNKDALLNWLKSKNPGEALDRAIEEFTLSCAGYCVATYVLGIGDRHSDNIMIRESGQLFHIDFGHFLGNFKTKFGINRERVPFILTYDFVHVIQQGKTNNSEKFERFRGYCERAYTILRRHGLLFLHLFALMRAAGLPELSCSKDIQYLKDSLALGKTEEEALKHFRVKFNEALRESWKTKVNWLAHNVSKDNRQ
Sequence of PI3Kδ (p110δ/p85α) Recombinant Human Protein (P27986 whole entry partner): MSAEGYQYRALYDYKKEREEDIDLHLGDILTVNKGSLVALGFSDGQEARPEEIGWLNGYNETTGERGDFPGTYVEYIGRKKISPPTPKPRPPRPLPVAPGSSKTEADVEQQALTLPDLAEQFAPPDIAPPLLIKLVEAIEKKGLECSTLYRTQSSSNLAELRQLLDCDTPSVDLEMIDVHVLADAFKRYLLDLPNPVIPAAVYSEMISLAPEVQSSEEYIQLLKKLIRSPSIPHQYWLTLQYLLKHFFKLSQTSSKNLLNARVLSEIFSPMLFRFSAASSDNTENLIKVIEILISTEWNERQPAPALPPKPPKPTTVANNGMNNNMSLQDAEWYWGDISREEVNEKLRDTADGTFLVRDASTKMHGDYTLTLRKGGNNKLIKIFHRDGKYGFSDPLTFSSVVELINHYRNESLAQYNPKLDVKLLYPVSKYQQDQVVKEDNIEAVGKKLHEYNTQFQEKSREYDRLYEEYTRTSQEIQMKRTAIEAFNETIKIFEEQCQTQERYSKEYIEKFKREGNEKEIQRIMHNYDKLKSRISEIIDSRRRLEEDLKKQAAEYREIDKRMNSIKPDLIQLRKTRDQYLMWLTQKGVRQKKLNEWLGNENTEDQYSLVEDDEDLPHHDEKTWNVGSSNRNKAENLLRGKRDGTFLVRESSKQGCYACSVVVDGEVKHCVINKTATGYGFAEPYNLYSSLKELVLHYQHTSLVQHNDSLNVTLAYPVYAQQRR

Work on `c1ccc(-c2cnc(-c3cc(-c4cncc(NCC5CCOCC5)c4)ccn3)[nH]2)cc1` [Example 141, 2′-(5-Phenyl-1H-imidazol-2-yl)-N-(tetrahydro-2H-pyran-4-ylmethyl)-3,4′-bipyridin-5-amine Trifluoroacetate Salt] yielded an IC50 ([1]; Homo sapiens) of over 5000 nM, an IC50 [2] of at most 50 nM and an IC50 [3] of at most 50 nM.

`c1ccc(-c2cnc(-c3cc(-c4cncc(NC5CCOCC5)c4)ccn3)[nH]2)cc1` [Example 142, 2′-(5-Phenyl-1H-imidazol-2-yl)-N-(tetrahydro-2H-pyran-4-yl)-3,4′-bipyridin-5-amine trifluoroacetate salt] gave an IC50 ([1]; Homo sapiens) of over 5000 nM, an IC50 [2] of at most 50 nM and an IC50 [3] of at most 50 nM.

For `Cc1nc(-c2cc(-c3cncc(C(=O)N4CC[C@H](O)C4)c3)ccn2)[nH]c1C` [Example 146, (S)-(2′-(4,5-Dimethyl-1H-imidazol-2-yl)-3,4′-bipyridin-5-yl)(3-hydroxypyrrolidin-1-yl)methanone], the IC50 ([1]; Homo sapiens) was at most 300 nM, the IC50 [2] was at most 50 nM and the IC50 [3] was at most 50 nM.

Work on `Cc1nc(-c2cc(-c3cncc(C(=O)N4CCCC4)c3)ccn2)[nH]c1C` [Example 151, (2′-(4,5-Dimethyl-1H-imidazol-2-yl)-3,4′-bipyridin-5-yl)(pyrrolidin-1-yl)methanone] yielded an IC50 ([1]; Homo sapiens) of at most 300 nM, an IC50 [2] of at most 50 nM and an IC50 [3] of at most 50 nM.

Compound `Cc1nc(-c2cc(-c3cncc(C(=O)N4CC(O)C4)c3)ccn2)[nH]c1C` [Example 152, (2′-(4,5-Dimethyl-1H-imidazol-2-yl)-3,4′-bipyridin-5-yl)(3-hydroxyazetidin-1-yl)methanone trifluoroacetate salt] has an IC50 ([1]; Homo sapiens) of 300 to 1000 nM, an IC50 [2] of at most 50 nM and an IC50 [3] of at most 50 nM.

Work on `Cc1nc(-c2cc(-c3cncc(C(=O)N4CC(C#N)C4)c3)ccn2)[nH]c1C` [Example 153, 1-(2′-(4,5-Dimethyl-1H-imidazol-2-yl)-3,4′-bipyridine-5-carbonyl)azetidine-3-carbonitrile trifluoroacetate salt] yielded an IC50 ([1]; Homo sapiens) of at most 300 nM, an IC50 [2] of at most 50 nM and an IC50 [3] of at most 50 nM.

Compound `Cc1nc(-c2cc(-c3cncc(C(=O)N4CC[C@@H](F)C4)c3)ccn2)[nH]c1C` [Example 155, (R)-(2′-(4,5-Dimethyl-1H-imidazol-2-yl)-3,4′-bipyridin-5-yl)(3-fluoropyrrolidin-1-yl)methanone trifluoroacetate salt] has an IC50 ([1]; Homo sapiens) of at most 300 nM, an IC50 [2] of at most 50 nM and an IC50 [3] of at most 50 nM.

For `Cc1nc(-c2cc(-c3cncc(C(=O)N4CCC5(CCOCC5)CC4)c3)ccn2)[nH]c1C` [Example 156, (2′-(4,5-Dimethyl-1H-imidazol-2-yl)-3,4′-bipyridin-5-yl)(3-oxa-9-azaspiro[5.5]undecan-9-yl)methanone trifluoroacetate salt], the IC50 ([1]; Homo sapiens) was 1000 to 5000 nM, the IC50 [2] was at most 50 nM and the IC50 [3] was at most 50 nM.

Compound `Cc1nc(-c2cc(-c3cncc(C(=O)NC(C)C)c3)ccn2)[nH]c1C` [Example 157, 2′-(4,5-Dimethyl-1H-imidazol-2-yl)-N-isopropyl-3,4′-bipyridine-5-carboxamide trifluoroacetate salt] has an IC50 ([1]; Homo sapiens) of 1000 to 5000 nM, an IC50 [2] of at most 500 nM and an IC50 [3] of at most 100 nM.

With `Cc1nc(-c2cc(-c3cncc(C(=O)N4CCN(C5CCN(C)CC5)CC4)c3)ccn2)[nH]c1C` [Example 158, (2′-(4,5-Dimethyl-1H-imidazol-2-yl)-3,4′-bipyridin-5-yl)(4-(1-methylpiperidin-4-yl)piperazin-1-yl)methanone] the IC50 ([1]; Homo sapiens) was 1000 to 5000 nM, the IC50 [2] was at most 100 nM and the IC50 [3] was at most 50 nM.

Work on `CC(=O)N1CCN(C(=O)c2cncc(-c3ccnc(-c4nc(C)c(C)[nH]4)c3)c2)CC1` [Example 159, 1-(4-(2′-(4,5-Dimethyl-1H-imidazol-2-yl)-3,4′-bipyridine-5-carbonyl)piperazin-1-yl)ethanone trifluoroacetate salt] yielded an IC50 ([1]; Homo sapiens) of 1000 to 5000 nM, an IC50 [2] of at most 100 nM and an IC50 [3] of at most 50 nM.

Work on `Cc1nc(-c2cc(-c3cncc(C(=O)NC4CCOCC4)c3)ccn2)[nH]c1C` [Example 160, 2′-(4,5-Dimethyl-1H-imidazol-2-yl)-N-(tetrahydro-2H-pyran-4-yl)-3,4′-bipyridine-5-carboxamide trifluoroacetate salt] yielded an IC50 ([1]; Homo sapiens) of 1000 to 5000 nM, an IC50 [2] of at most 500 nM and an IC50 [3] of at most 50 nM.

Work on `Cc1nc(-c2cc(-c3cncc(C(=O)N4CC[C@@H](N(C)C)C4)c3)ccn2)[nH]c1C` [Example 161, (R)-(2′-(4,5-Dimethyl-1H-imidazol-2-yl)-3,4′-bipyridin-5-yl)(3-(dimethylamino)pyrrolidin-1-yl)methanone trifluoroacetate salt] yielded an IC50 ([1]; Homo sapiens) of at most 300 nM, an IC50 [2] of at most 100 nM and an IC50 [3] of at most 50 nM.

Work on `Cc1nc(-c2cc(-c3cncc(C(=O)N4CC[C@@H](O)C4)c3)ccn2)[nH]c1C` [Example 163, (R)-(2′-(4,5-Dimethyl-1H-imidazol-2-yl)-3,4′-bipyridin-hydroxypyrrolidin-1-yl)methanone trifluoroacetate salt] yielded an IC50 [1] of at most 300 nM, an IC50 [2] of at most 50 nM and an IC50 [3] of at most 50 nM.

Work on `Cc1nc(-c2cc(-c3cncc(C(=O)N4CCC5(CC4)COC5)c3)ccn2)[nH]c1C` [Example 165, (2′-(4,5-Dimethyl-1H-imidazol-2-yl)-3,4′-bipyridin-5-yl)(2-oxa-7-azaspiro[3.5]nonan-7-yl)methanone trifluoroacetate salt] yielded an IC50 ([1]; Homo sapiens) of at most 300 nM, an IC50 [2] of at most 100 nM and an IC50 [3] of at most 50 nM.

Compound `Cc1nc(-c2cc(-c3cncc(C(=O)N4CCC(=O)C4)c3)ccn2)[nH]c1C` [Example 168, 1-(2′-(4,5-Dimethyl-1H-imidazol-2-yl)-3,4′-bipyridine-5-carbonyl)pyrrolidin-3-one trifluoroacetate salt] has an IC50 ([1]; Homo sapiens) of at most 300 nM, an IC50 [2] of at most 50 nM and an IC50 [3] of at most 50 nM.

In the case of `Cc1nc(-c2cc(-c3cncc(C(=O)N4C[C@H](CO)[C@@H](C)C4)c3)ccn2)[nH]c1C` [Example 172, ((3R,4R)-1-{[2′-(4,5-Dimethyl-1H-imidazol-2-yl)-3,4′-bipyridin-5-yl]carbonyl}-4-methylpyrrolidin-3-yl)methanol trifluoroacetate salt], the IC50 ([1]; Homo sapiens) is reported as 300 to 1000 nM, the IC50 [2] is reported as at most 50 nM and the IC50 [3] is reported as at most 50 nM.

In the case of `Cc1nc(-c2cc(-c3cncc(C(=O)N4CCC(F)(F)C4)c3)ccn2)[nH]c1C` [Example 173, 5-[(3,3-Difluoropyrrolidin-1-yl)carbonyl]-2′-(4,5-dimethyl-1H-imidazol-2-yl)-3,4′-bipyridine trifluoroacetate salt], the IC50 ([1]; Homo sapiens) is reported as at most 300 nM, the IC50 [2] is reported as at most 50 nM and the IC50 [3] is reported as at most 50 nM.

Compound `Cc1nc(-c2cc(-c3cncc(C(=O)N4C5CCC4CC5)c3)ccn2)[nH]c1C` [Example 179, 5-(7-Azabicyclo[2.2.1]hept-7-ylcarbonyl)-2′-(4,5-dimethyl-1H-imidazol-2-yl)-3,4′-bipyridine trifluoroacetate salt] has an IC50 ([1]; Homo sapiens) of at most 300 nM, an IC50 [2] of at most 100 nM and an IC50 [3] of at most 50 nM.

`Cc1nc(-c2cc(-c3cncc(C(=O)N4CC(C)(C)C4)c3)ccn2)[nH]c1C` [Example 185, 5-[(3,3-Dimethylazetidin-1-yl)carbonyl]-2′-(4,5-dimethyl-1H-imidazol-2-yl)-3,4′-bipyridine trifluoroacetate salt] showed an IC50 ([1]; Homo sapiens) of at most 300 nM, an IC50 [2] of at most 100 nM and an IC50 [3] of at most 50 nM.

`Cc1nc(-c2cc(-c3cncc(C(=O)N4CCC(c5ccccc5)CC4)c3)ccn2)[nH]c1C` [Example 186, 2′-(4,5-Dimethyl-1H-imidazol-2-yl)-5-[(4-phenylpiperidin-1-yl)carbonyl]-3,4′-bipyridine trifluoroacetate salt] was tested, and the IC50 ([1]; Homo sapiens) was at most 300 nM, the IC50 [2] was at most 50 nM and the IC50 [3] was at most 50 nM.

For `Cc1nc(-c2cc(-c3cncc(C(=O)N4CC[C@H]5CCCC[C@@H]5C4)c3)ccn2)[nH]c1C` [Example 187, 2′-(4,5-Dimethyl-1H-imidazol-2-yl)-5-[(4aR,8aS)-octahydroisoquinolin-2(1H)-ylcarbonyl]-3,4′-bipyridine trifluoroacetate salt], the IC50 ([1]; Homo sapiens) was 300 to 1000 nM, the IC50 [2] was at most 100 nM and the IC50 [3] was at most 50 nM.

`Cc1nc(-c2cc(-c3cncc(C(=O)N4CCC4)c3)ccn2)[nH]c1C` [Example 191, 5-(Azetidin-1-ylcarbonyl)-2′-(4,5-dimethyl-1H-imidazol-2-yl)-3,4′-bipyridine trifluoroacetate salt] showed an IC50 ([1]; Homo sapiens) of at most 300 nM, an IC50 [2] of at most 50 nM and an IC50 [3] of at most 50 nM.

Work on `Cc1nc(-c2cc(-c3cncc(C(=O)NCc4ccccc4)c3)ccn2)[nH]c1C` [Example 192, N-Benzyl-2′-(4,5-dimethyl-1H-imidazol-2-yl)-3,4′-bipyridine-5-carboxamide trifluoroacetate salt] yielded an IC50 ([1]; Homo sapiens) of 1000 to 5000 nM, an IC50 [2] of at most 100 nM and an IC50 [3] of at most 100 nM.

In the case of `Cc1nc(-c2cc(-c3cncc(C(=O)N(C)Cc4ccccc4)c3)ccn2)[nH]c1C` [Example 193, N-Benzyl-2′-(4,5-dimethyl-1H-imidazol-2-yl)-N-methyl-3,4′-bipyridine-5-carboxamide trifluoroacetate salt], the IC50 ([1]; Homo sapiens) is reported as at most 300 nM, the IC50 [2] is reported as at most 50 nM and the IC50 [3] is reported as at most 50 nM.

Work on `Cc1nc(-c2cc(-c3cncc(C(=O)N(C)c4ccccc4)c3)ccn2)[nH]c1C` [Example 194, 2′-(4,5-Dimethyl-1H-imidazol-2-yl)-N-methyl-N-phenyl-3,4′-bipyridine-5-carboxamide trifluoroacetate salt] yielded an IC50 ([1]; Homo sapiens) of at most 300 nM, an IC50 [2] of at most 50 nM and an IC50 [3] of at most 50 nM.
